Data set [1] can be described thus: UV absorption properties (λmax, molar extinction coefficient ε, efficiency E 1%, 1 cm). Type of data set: physicochemical.
Data set [2] in a line: Critical wavelength (λcrit), approximate in-house measurement. Type of data set: physicochemical. An excerpt:
As the precise test for critical wavelength was unable to be replicated exactly by the inventors due to the need for specialist equipment and a specific calibration of the spectrophotometer, these values are only approximate to a degree. […] This represents a highly useful result and so, compounds based around this benzoyl substitution pattern shown, are especially preferred.

The mark [3] stands for this setting: Table 13B, miscellaneous compounds.
[4] abbreviates: Table 13B, values in order of the λmax values.
Where [5] appears, read: Table 13B, values in order of the λmax values, in M-1 cm-1.
Setting [6] is: Table 3, compounds from isocyanates or isothiocyanates.
Where [7] appears, read: Table 10, bis and mono enamine compounds.
Setting [8] is: Table 7, values in order of the λmax values.
The mark [9] stands for this setting: Table 9, C3-trifluoroacetylated N-aryl enamines.

For the compound `Cc1cc(/C=C/C(=O)C2=CN(C(C)(C)C)CCC2(C)C)c(C)cc1/C=C/C(=O)C1=CN(C(C)(C)C)CCC1(C)C`, the λmax in data set [1] (setting [3]) is given as 385 nm. Moreover, the “E (1%, 1 cm)” value in data set [1] (setting [4]) amounted to 591. In addition, the ε in data set [1] (setting [5]) is listed as 32159. In data set [2] (Table 13B), this compound showed a λcrit of 390 nm.

Regarding `Cc1cc(/C=C/C(=O)C2=CN(C(C)(C)C)CCC2(C)C)c(C)cc1Br`, in data set [1] (setting [3]), the λmax was determined as 360 nm. Also, in data set [1] (setting [4]), the “E (1%, 1 cm)” value is recorded as 532. For the same compound, in data set [1] (setting [5]), the ε was 21473. In data set [2] (Table 13B), this compound registered a λcrit of 386 nm.

Take `CC1(C)CCN(c2ccc(C(C)(C)C)cc2)C=C1C(=O)N(Cc1ccc(CN(C(=O)C2=CN(c3ccc(C(C)(C)C)cc3)CCC2(C)C)c2ccccc2)cc1)c1ccccc1`: the λmax in data set [1] (setting [3]) is 326 nm. Moreover, in data set [1] (setting [4]), the “E (1%, 1 cm)” value is 567. The compound further yielded a ε in data set [1] (setting [5]) of 46937. Further, the λcrit in data set [2] (Table 13B) was 352 nm.

Take `CC1(C)CCN(C(C)(C)C)C=C1C(=O)Nc1ccc(Cc2ccc(NC(=O)C3=CN(C(C)(C)C)CCC3(C)C)cc2)cc1` [drawing 63]: in data set [1] (Table 3), the “Ε (1%, 1 cm)” value was 1105. The λmax in data set [1] (setting [6]) came out at 310 nm. The compound also showed a ε in data set [1] (Table 3, in M-1 cm-1) of 64589. This compound also showed a λcrit in data set [2] (Table 3) of 328 nm.

For the compound `CC1(C)C=CN(c2ccncc2)C=C1`, the “E (1%, 1 cm)” value in data set [1] (Table 10) worked out at 977. Besides, the λmax in data set [1] (setting [7]) is 305 nm. In data set [1] (Table 10, in M-1 cm-1), this compound showed a ε of 18164. The λcrit in data set [2] (Table 10) is given as 327 nm.

Turning to `CC1(C)CCN(C(C)(C)C)C=C1C(=O)Nc1ccc(NC(=O)C2=CN(C(C)(C)C)CCC2(C)C)cc1` [drawing 65], the “Ε (1%, 1 cm)” value in data set [1] (Table 3) was found to be 1456. Besides, the λmax in data set [1] (setting [6]) is reported as 322 nm. In data set [1] (Table 3, in M-1 cm-1), the ε worked out at 71962. In data set [2] (Table 3), this compound yielded a λcrit of 346 nm.

In the case of `CC1(C)CCN(c2ccc(C(C)(C)C)cc2)C=C1C(=O)Nc1ccccc1` [drawing 70], in data set [1] (Table 4), the “Ε (1%, 1 cm)” value is 987. For the same compound, the λmax in data set [1] (Table 4, N-aryl enamines with isocyanates) turned out to be 324 nm. In data set [1] (Table 4, in M-1 cm-1), this compound had a ε of 35759. Also, in data set [2] (Table 4), the λcrit turned out to be 342 nm.

In the case of `CC(C)(C)CC(C)(C)N1C=C(C(=O)/C=C/c2ccc(/C=C/C(=O)C3=CN(C(C)(C)CC(C)(C)C)CCC3(C)C)cc2)C(C)(C)CC1`, the λmax in data set [1] (setting [3]) came out at 386 nm. For the same compound, the “E (1%, 1 cm)” value in data set [1] (setting [4]) was 486. The ε in data set [1] (setting [5]) is recorded as 31937. Further, the λcrit in data set [2] (Table 13B) is given as 390 nm.

`Cc1ccc(N2C=CC(C)(C)C(C(=O)C(F)(F)F)=C2)cc1` [drawing 151]: the “E (1%, 1 cm)” value in data set [1] (Table 10) stood at 505. In data set [1] (setting [7]), this compound yielded a λmax of 388 nm. In data set [1] (Table 10, in M-1 cm-1), this compound came in with a ε of 14911. The λcrit in data set [2] (Table 10) amounted to 393 nm.

Consider `C=CC(=O)C1=CN(c2ccc(C)cc2)CCC1(C)C`, for which, in data set [1] (setting [3]), the λmax amounted to 348 nm. Also, the “E (1%, 1 cm)” value in data set [1] (setting [4]) stood at 1045. In data set [1] (setting [5]), the ε amounted to 26657. In data set [2] (Table 13B), the λcrit was determined as 377 nm.

Turning to `COc1ccc(/C=C/C(=O)C2=CN(CC(C)C)CCC2(C)C)cc1` [drawing 114], the λmax in data set [1] (Table 7, unsaturated compounds) was 364 nm. Also, in data set [1] (setting [8]), the “E (1%, 1 cm)” value came out at 493 and the ε is 16150 M⁻¹ cm⁻¹. The λcrit in data set [2] (Table 7) was determined as 386 nm.

Regarding `C=CC(=O)C1=CN(c2ccccc2)CCC1(C)C` [drawing 123], in data set [1] (Table 8a), the “E (1%, 1 cm)” value is given as 874 and the ε turned out to be 21000 M⁻¹ cm⁻¹. In addition, in data set [1] (Table 8a, N-phenyl compounds), the λmax is recorded as 346 nm. In data set [2] (Table 8a), this compound had a λcrit of 373 nm.

The compound `CCC(=O)C1=CN(c2ccc(Oc3ccc(N4C=C(C(=O)CC)C(C)(C)CC4)cc3)cc2)CCC1(C)C` gave a λmax in data set [1] (setting [3]) of 334 nm. The “E (1%, 1 cm)” value in data set [1] (setting [4]) amounted to 1121. Further, the ε in data set [1] (setting [5]) is reported as 58063. Moreover, in data set [2] (Table 13B), the λcrit worked out at 353 nm.

For `C=CC(=O)C1=CN(c2ccc(OC)cc2)CCC1(C)C` [drawing 128], in data set [1] (Table 8a), the “E (1%, 1 cm)” value is 794 and the ε came to 21500 M⁻¹ cm⁻¹. Moreover, the λmax in data set [1] (Table 8a, N-phenyl compounds) is 350 nm. Further, in data set [2] (Table 8a), the λcrit came to 379 nm.

The compound `COC(=O)c1cc(Br)ccc1/C=C/C(=O)C1=CN(C(C)(C)C)CCC1(C)C` showed a λmax in data set [1] (setting [3]) of 362 nm. In data set [1] (setting [4]), the “E (1%, 1 cm)” value is listed as 411. This compound also displayed a ε in data set [1] (setting [5]) of 13489. In data set [2] (Table 13B), this compound gave a λcrit of 386 nm.

`Cc1cc(-c2ccc(N3C=C(C(=O)C(F)(F)F)C(C)(C)CC3)c(C)c2)ccc1N1C=C(C(=O)C(F)(F)F)C(C)(C)CC1` returned a λmax in data set [1] (setting [3]) of 331 nm. Further, the “E (1%, 1 cm)” value in data set [1] (setting [4]) turned out to be 1207. For the same compound, the ε in data set [1] (setting [5]) worked out at 71432. The same compound yielded a λcrit in data set [2] (Table 13B) of 354 nm.

Regarding `CC1(C)CCN(C(C)(C)C)C=C1C(=O)C1=CN(C(C)(C)C)CCC1(C)C` [drawing 73], the λmax in data set [1] (Table 5, acylation of N-t-Bu enamine) stood at 305 nm. The “Ε (1%, 1 cm)” value in data set [1] (Table 5, values in order of the λmax values) is on record as 456. The same compound came in with a ε in data set [1] (Table 5, values in order of the λmax values, in M-1 cm-1) of 16425. Further, in data set [1] (Tables 5, 10, 13B), the “shoulder in the λmax column” value is 330 nm. This compound also returned a λcrit in data set [2] (Table 5) of 351 nm.

Take `CC1(C)CCN(c2cccc3ccccc23)C=C1C(=O)C(F)(F)F` [drawing 143]: the “E (1%, 1 cm)” value in data set [1] (Table 9) amounted to 985. In data set [1] (setting [9]), this compound returned a λmax of 325 nm. The same compound had a ε in data set [1] (Table 9, in M-1 cm-1) of 32790. Further, the λcrit in data set [2] (Table 9) is reported as 348 nm.

`CC1(C)CCN(C(C)(C)C)C=C1C(=O)c1ccc(N2CCN(c3ccc(C(=O)C4=CN(C(C)(C)C)CCC4(C)C)cc3)CC2)cc1` gave a λmax in data set [1] (setting [3]) of 323 nm. Besides, the “E (1%, 1 cm)” value in data set [1] (setting [4]) worked out at 830. Besides, in data set [1] (setting [5]), the ε stood at 51851. This compound also registered a λcrit in data set [2] (Table 13B) of 356 nm.

Regarding `CCCCC(CC)CNc1ccc(C(=O)C2=CN(C(C)(C)C)CCC2(C)C)cc1` (stereo not shown), in data set [1] (setting [3]), the λmax amounted to 318 nm. In addition, the “E (1%, 1 cm)” value in data set [1] (setting [4]) is 551. The compound also yielded a ε in data set [1] (setting [5]) of 21936. In data set [2] (Table 13B), the λcrit was 362 nm.

Turning to `Cc1ccc(N2C=CC(C)(C)CC2)cc1`, in data set [1] (Table 10), the “E (1%, 1 cm)” value was found to be 1036. In addition, the λmax in data set [1] (setting [7]) is given as 278 nm. Besides, the ε in data set [1] (Table 10, in M-1 cm-1) was 20823. Also, in data set [2] (Table 10), the λcrit came to 321 nm.

For the compound `CC1(C)CCN(c2ccc(C(C)(C)C)cc2)C=C1C(=O)C(F)(F)F` [drawing 139], in data set [1] (Table 9), the “E (1%, 1 cm)” value came to 1260. Also, the λmax in data set [1] (setting [9]) is 337 nm. The ε in data set [1] (Table 9, in M-1 cm-1) is recorded as 42723. This compound also came in with a λcrit in data set [2] (Table 9) of 361 nm.

In data set [1] (setting [3]), `CC1(C)CCN(c2ccc(N3C=C(C(=O)CC4CCCCC4)C(C)(C)CC3)cc2)C=C1C(=O)CC1CCCCC1` registered a λmax of 360 nm. Further, the “E (1%, 1 cm)” value in data set [1] (setting [4]) is 1030. Moreover, the ε in data set [1] (setting [5]) was determined as 56032. In data set [2] (Table 13B), this compound had a λcrit of 379 nm.

Take `CCC(=O)C1=CN(c2ccc(OC)cc2)CCC1(C)C` [drawing 127]: in data set [1] (Table 8a), the “E (1%, 1 cm)” value is 862 and the ε amounted to 23500 M⁻¹ cm⁻¹. Further, the λmax in data set [1] (Table 8a, N-phenyl compounds) is recorded as 328 nm. Further, the λcrit in data set [2] (Table 8a) is recorded as 350 nm.

As to `COc1ccc(N2C=C(C(=O)C3CCCC3=O)C(C)(C)CC2)cc1` (stereo not shown) [drawing 130], the “E (1%, 1 cm)” value in data set [1] (Table 8b) came out at 938. This compound gave a λmax in data set [1] (Table 8b, N-phenyl compounds) of 332 nm. The ε in data set [1] (Table 8b, in M-1 cm-1) was determined as 30675. The compound also registered a λcrit in data set [2] (Table 8b) of 358 nm.

With `COc1ccc(N2C=C(C(=O)C(F)(F)F)C(C)(C)CC2)cc1` [drawing 140], the “E (1%, 1 cm)” value in data set [1] (Table 9) was 774. The same compound came in with a λmax in data set [1] (setting [9]) of 339 nm. The same compound yielded a ε in data set [1] (Table 9, in M-1 cm-1) of 24235. The λcrit in data set [2] (Table 9) is 365 nm.

Turning to `CCCCCCC(=O)C1=CN(c2ccc(N3C=C(C(=O)CC(C)CCC=C(C)C)C(C)(C)CC3)cc2)CCC1(C)C` (stereo not shown), the λmax in data set [1] (setting [3]) is 358 nm. Moreover, the “E (1%, 1 cm)” value in data set [1] (setting [4]) amounted to 934. In addition, the ε in data set [1] (setting [5]) is on record as 52353. In data set [2] (Table 13B), the λcrit was found to be 378 nm.
